Values of other authors, collected in patent US20130338198A1, “COMPOSITION FOR TREATING DERMATITIS AND ICHTHYOSIS, AND METHOD FOR TREATING DERMATITIS AND ICHTHYOSIS” (Skinvisible Pharmaceuticals, Inc., priority 2010, published 2013).

Details: in vivo

For “Poly(vinylpyrrolidone/1-eicosene) [PVPE]”, the dermal toxicity is listed as “no demonstrable dermal toxicity”.
For “Poly(vinylpyrrolidone/1-hexadecene) [PVPH]”, the dermal toxicity is listed as “no demonstrable dermal toxicity”.
